Assay results: US5082848A, “Substituted 4-aminoquinoline derivatives as gastric acid secretion inhibitors” (Smith Kline & French Laboratories, Ltd., priority 1988, dated 1992)

Tests used:
[1] = test system: pentagastrin stimulated gastric acid secretion; test: Rat Lumen Perfused Stomach (pentagastrin stimulated gastric acid secretion); assay type: in vivo; conditions: i.v. administration, 10 μmole/kg
Text: B. Rat Lumen Perfused Stomach (pentagastrin stimulated gastric acid secretion).
Using a modification of the procedure described by Ghosh & Schild (Br. J. Pharmacology, 13, 54, 1958), the compounds of the following examples were found on i.v. administration at a concentration of 10 μmole/kg to cause an inhibition of pentagastrin stimulated gastric acid secretion as follows: […]

[2] = target: T1, H^+ K^+ ATPase (Sus scrofa, UniProt P19156); test: K^+ -stimulated ATPase activity in lyophilised gastric vesicles; assay type: biochemical; conditions: lyophilised gastric vesicles from pig fundic mucosa, 37° C., pH 7.0, 30 minutes
T1 construct: Lyophilised gastric vesicles were prepared from pig fundic mucosa; from tissue; host or cells: pig fundic (gastric) mucosa, lyophilised gastric vesicles
T1 sequence (P19156 2-1034 limits assumed): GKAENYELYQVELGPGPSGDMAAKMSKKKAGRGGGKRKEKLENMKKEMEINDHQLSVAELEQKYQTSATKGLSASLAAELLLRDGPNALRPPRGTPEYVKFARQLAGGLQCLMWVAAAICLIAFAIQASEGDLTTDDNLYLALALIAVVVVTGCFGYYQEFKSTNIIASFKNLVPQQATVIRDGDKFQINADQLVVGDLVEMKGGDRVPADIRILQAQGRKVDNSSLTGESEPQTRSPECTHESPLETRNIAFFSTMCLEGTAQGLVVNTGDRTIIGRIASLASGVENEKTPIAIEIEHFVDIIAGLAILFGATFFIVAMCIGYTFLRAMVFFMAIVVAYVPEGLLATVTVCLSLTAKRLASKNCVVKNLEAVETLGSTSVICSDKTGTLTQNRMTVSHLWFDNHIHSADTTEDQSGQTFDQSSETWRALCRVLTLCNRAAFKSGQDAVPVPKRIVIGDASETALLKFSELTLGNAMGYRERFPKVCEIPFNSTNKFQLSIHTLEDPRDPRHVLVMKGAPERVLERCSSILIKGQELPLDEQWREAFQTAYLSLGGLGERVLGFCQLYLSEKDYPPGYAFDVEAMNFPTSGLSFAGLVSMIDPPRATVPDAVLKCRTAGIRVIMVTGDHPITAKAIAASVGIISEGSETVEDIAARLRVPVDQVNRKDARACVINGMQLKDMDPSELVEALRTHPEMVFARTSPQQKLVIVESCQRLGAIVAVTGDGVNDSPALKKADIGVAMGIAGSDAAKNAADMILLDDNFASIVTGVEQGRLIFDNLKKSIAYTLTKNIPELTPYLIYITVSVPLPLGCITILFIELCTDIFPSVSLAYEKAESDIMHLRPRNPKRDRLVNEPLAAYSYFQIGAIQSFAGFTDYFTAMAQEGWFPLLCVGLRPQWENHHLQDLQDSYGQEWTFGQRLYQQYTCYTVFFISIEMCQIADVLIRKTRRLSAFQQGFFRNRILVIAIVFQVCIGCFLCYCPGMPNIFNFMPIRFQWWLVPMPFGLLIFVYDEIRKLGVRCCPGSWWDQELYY
T1 sequence (P18434 whole entry partner): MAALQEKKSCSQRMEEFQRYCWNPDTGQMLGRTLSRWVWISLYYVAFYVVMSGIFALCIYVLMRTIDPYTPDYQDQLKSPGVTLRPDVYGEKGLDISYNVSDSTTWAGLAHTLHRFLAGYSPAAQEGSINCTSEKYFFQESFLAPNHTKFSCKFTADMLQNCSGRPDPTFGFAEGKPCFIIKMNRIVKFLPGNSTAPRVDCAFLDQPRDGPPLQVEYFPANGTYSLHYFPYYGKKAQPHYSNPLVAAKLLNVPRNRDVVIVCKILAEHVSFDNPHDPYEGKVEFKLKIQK
Method: The effects of a single high concentration (100 μM) of a compound of structure (I) on K^+ -stimulated ATPase activity in lyophilised gastric vesicles was determined. Preferred compounds of structure (I) were also tested over a range of concentrations to determine IC50 values.
Lyophilised gastric vesicles were prepared from pig fundic mucosa after the method of Keeling et. al. (Biochem. Pharmacol., 34, 2967, 1985).
K^+ -stimulated ATPase activity was determined at 37° C. in the presence of the following: 10 mM Pipes/Tris buffer pH 7.0, 2 mM MgSO4, 1 mM KCl, 2 mM Na2 ATP and 3-6 μg protein/ml lyophilised gastric vesicles. After incubation for 30 minutes, the inorganic phosphate hydrolysed from ATP was determined by the method of Yoda and Hokin (Biochem. Biophys. Res. Commun. 40, 880, 1970).
Compounds of structure (I) were dissolved in dimethylsulphoxide which up to the highest concentration
used had no effect on K^+ -stimulated ATPase activity.
The effect of the highest concentration of each compound of structure (I) on the recovery of a standard amount of inorganic phosphate was also determined.

| Compound | % inhibition of pentagastrin stimulated gastric acid secretion [1] [%] | IC50 [2] [µM] |
| --- | --- | --- |
| CCCC(=O)c1cnc2c(OC)cccc2c1Nc1ccccc1COC [Example 2, 3-butyryl-4-(2-methoxymethylphenylamino)-8-methoxyquinoline] | 43 | 5.5 |
| CCCC(=O)c1cnc2c(OC)cccc2c1Nc1c(C)cc2c(c1C)OCO2 [Example 5, 3-butyryl-4-(3,4-methylenedioxy-2,6-dimethylphenylamino)-8-methoxyquinoline] | 44 | 2.7 |
| CCCC(=O)c1cnc2c(OC)cccc2c1Nc1ccccc1CO [Example 1, 3-butyryl-4-(2-(hydroxymethyl)phenylamino)-8-methoxyquinoline] | 33 | 12 |
| CCCC(=O)c1cnc2c(OC)cccc2c1Nc1cc(CO)ccc1C [Example 7, 3-butyryl-4-(5-hydroxymethyl-2-methylphenylamino)-8-methoxyquinoline] | 25 | 10.2 |
| CCCC(=O)c1cnc2c(OC)cccc2c1Nc1ccc(CO)cc1 [Example 4, 3-butyryl-4-(4-hydroxymethylphenylamino)-8-methoxyquinoline] | 51 | – |
| CCCC(=O)c1cnc2c(OC)cccc2c1Nc1cccc(CO)c1C [Example 6, 3-butyryl-4-(3-hydroxymethyl-2-methylphenylamino)-8-methoxyquinoline] | – | 6 |
| CCCC(=O)c1cnc2c(OC)cccc2c1Nc1ccc2c(c1)OCO2 [Example 3, 3-butyryl-4-(3,4-(methylenedioxy)phenylamino)-8-methoxyquinoline] | 20 | 3.6 |
